Test: Human HepG2 cell viability assay in 384 well format
Type: toxicity, cell-based
Parameters: dose 125 nL, time 70.5 hour; concentration not given beside the values
Conditions: HepG2 cells, read-out: Inhibition

| SMILES | cytotoxicity at 70.5 h |
| --- | --- |
| CN(Cc1ccco1)C(=O)[C@@]12CNC[C@@H]1CN(C1CCCC1)C2 | -23% |
| CN(C)C(=O)N1CCCC(C(=O)N(C)Cc2cnc(N)nc2)C1 (configuration not stated) | -10.7% |
| CNC(=O)[C@@H]1C[C@H](n2cc(-c3ccc(Cl)cc3)nn2)CN1 | -3.41% |
| N#Cc1cccc(N2CCCC(CO)(Cc3ccccc3F)C2)n1 (configuration not stated) | 20.1% |
| CCNC(=O)[C@@H]1C[C@H](N)CN1c1cc(C(F)(F)F)nc(N(C)C)n1 | 37.1% |
| Cc1ccc(-c2nn(-c3cccc(F)c3)cc2CN(C)CCO)o1 | -4.83% |
| Cc1cccc2c1nc(CCO)n2-c1ccc(NS(C)(=O)=O)nc1 | -8.44% |
| CCNC(=O)[C@@H]1C[C@@H](n2cc(CN(CC)CC)nn2)CN1 | -13.5% |
| CN(C)CCN(C)C[C@@H]1CN(C(=O)NC2CCCC2)C[C@@H]1CO | -8.45% |
| O=C(Nc1ccc(-c2nc3c([nH]2)CCNC3)cc1)N1CCCC1 | -15.7% |
| CN1CC2(CCCN(Cc3cccc(CCN)c3)C2)OC1=O (configuration not stated) | 2.55% |
| COC(=O)NCC(=O)N1CCC(Oc2cccc(C)c2)CC1 | -5.33% |
| O=C(O)C1(n2ccc(-c3ccco3)n2)CCN(Cc2cccnc2)CC1 | -4.45% |
| Cc1nc(C(C)C)cc(N2CCC3(CCC(=O)N(CC4CC4)C3)CC2)n1 | -11% |
| CN(C)c1ccccc1C(=O)N1CCOC2(CNCCOC2)C1 (configuration not stated) | -2.92% |
| C[C@@H]1CN(CCCOc2ccc(F)cc2)CC[C@@]1(O)C1CCOCC1 | 2.59% |
| O=C(CCCN1CCCCC1)NC(C(=O)O)c1ccc(Cl)cc1 (configuration not stated) | -5.87% |
| Cc1nc(N(C)C/C=C/c2ccccc2)c2cnn(C)c2n1 | -5.71% |
| COCC[C@]1(O)CCN(Cc2nc(C)cs2)C[C@H]1C | 15.3% |
| NC(=O)c1cccc(CC2CCN(C(=O)Cn3cnnn3)C2)c1 (configuration not stated) | -10.5% |
| Cc1cccc(C(C(=O)N(C)CCc2cn[nH]c2)N(C)C)c1 (configuration not stated) | -8.71% |
| CN(CCc1ccccn1)C(=O)c1ccccc1F | -4.18% |
| Cc1ccc(F)c(OC2(C(=O)O)CCN(C(=O)c3ccco3)CC2)c1 | -7.46% |

| SMILES | cytotoxicity at 70.5 h |
| --- | --- |
| O=C(CCCN1CCCCC1)N1CCN(C(=O)c2ccc[nH]2)CC1 | 3.29% |
| Cc1cccnc1CC(C)NC1CCSCC1 (configuration not stated) | -3.02% |
| CCN1CCN(Cc2nc(Cc3ccccc3)n[nH]2)CC1 | -5.11% |
| CCNc1ncc(C(=O)N2CCOC(CCCc3ccccc3)C2)cn1 (configuration not stated) | 14.5% |
| CC(C1CCN(C(=O)c2coc(CN3CCOCC3)c2)CC1)N(C)C (configuration not stated) | -1.57% |
| CC(C)c1cc(NC2CCCN(C(=O)c3cccs3)C2)ncn1 (configuration not stated) | 2.55% |
| COCCN1C(=O)[C@H]2CC[C@@H]1CN(c1nccc(C3CCCC3)n1)C2 | -4.32% |
| O=S(=O)(NCc1ccccc1)N1CCN(c2ncccn2)CC1 | -18.4% |
| Cn1cnnc1CC1CCN(Cc2nn(C)c3cccc(Cl)c23)CC1 | 39.8% |
| COC[C@]1(O)CCN(C(=O)c2ccc(CN(C)C)o2)CC1(C)C | -12.5% |
| CC(Oc1ccc(F)cc1F)C(=O)N1CCC2(CC1)CC(=O)N(C)C2 (configuration not stated) | 27.3% |
| O=C(NCc1cn2cccnc2n1)C1CC(=O)N(Cc2cccnc2)C1 (configuration not stated) | 2.43% |
| O=C(Cc1ccccn1)N1CCC2(CC1)[C@H](O)C[C@@H]2O | -12.4% |
| CSc1ncc(CN2CC(Oc3c(C)cccc3C)C2)cn1 | -2.81% |
| CC(C)c1cc(=O)[nH]c(-c2ccccc2CN2CCCCCC2)n1 | -13.2% |
| CC(C)c1ncc(CN2C[C@@H](CN3CCCN(C)CC3)[C@@H](CO)C2)cn1 | -3.2% |
| Cc1ccnn1CC(=O)N1CCN(C2CCc3ccccc3C2)CC1 (configuration not stated) | 3.04% |
| Cc1nnc(CN2CCC3(CCC(=O)N([C@H]4CC[C@H](O)CC4)C3)CC2)o1 | -8.57% |
| CSc1ccc(CN(CCO)C(=O)CCc2cccc(F)c2)cc1 | -15.9% |
| Cc1cc(F)cc(CN2CCCn3nc(CNS(C)(=O)=O)cc3C2)c1 | 0.898% |
| O=C1CCOCCN1Cc1ccc(C(F)(F)F)c(F)c1 | 14.1% |
| COc1ccc(Cl)cc1S(=O)(=O)N(C)CC(=O)Nc1cccnc1 | -5.02% |
| CC(C)=CCN1CCN(Cc2nccn2C)[C@H]2CS(=O)(=O)C[C@H]21 | -7.09% |

| SMILES | cytotoxicity at 70.5 h |
| --- | --- |
| COCC1CCN(C(C(=O)O)c2c(F)cccc2OC(C)C)CC1 (configuration not stated) | -6.42% |
| CN(Cc1cc[nH]n1)C(=O)c1cn(Cc2ccccc2Cl)nn1 | -9.32% |
| Cc1cc(C(=O)N2CCC(C)CC2)ccc1NS(C)(=O)=O | -4.78% |
| Cc1cnccc1NCCn1ccnc1C1CCOC1 (configuration not stated) | -3.31% |
| COc1cc(C)c(C)cc1S(=O)(=O)N(C)CC(=O)Nc1ccon1 | -15.2% |
| CCn1cnnc1CCNC(=O)C1COc2ccc(OC)cc2C1 (configuration not stated) | -11.5% |
| COCCNC(=O)c1cc(S(=O)(=O)N2CCCC2)cs1 | 14.3% |
| COc1nccc(N2CC[C@H](CO)[C@@H](O)C2)c1C#N | -6.06% |
| COc1ccc(Cl)cc1S(=O)(=O)N(C)CC(=O)Nc1ccon1 | -12% |
| O=S(=O)(Cc1c(F)cccc1Cl)NCCCN1CCCCCC1 | -1.18% |
| Cn1c(C(=O)N2CCc3[nH]cnc3C2C(=O)O)ccc1-c1ccccc1 (configuration not stated) | -2.27% |
| NC(=O)C1CCN(C(=O)c2cc(S(=O)(=O)N3CCCCC3)cs2)CC1 | 14.2% |
| CC1(C)CN(C(=O)c2ncc(F)cc2F)CCC1(O)CN1CCOCC1 (configuration not stated) | -0.112% |
| O=C(NCCc1ccncc1)c1cccc(S(=O)(=O)N[C@@H]2CCNC2)c1 | 19% |
| Cn1ccnc1CN1CCC(c2nnc(Cn3cccn3)n2C)CC1 | 24.7% |
| CC1(C)CN(Cc2c[nH]c(CC3CCCC3)n2)CC[C@]1(C)O | -5.46% |
| CCC(CO)n1cnc2scc(C)c2c1=O (configuration not stated) | -22.7% |
| Cc1nc2c(c(N3CCN(Cc4ccco4)CC3)n1)CCNCC2 | -4.87% |
| OCc1ccc(-c2nccn2CCC2=CCCCC2)o1 | -9.58% |
| CN1CCN(CCCNS(=O)(=O)Cc2ccccc2F)CC1 | -0.252% |
| CCC(C(=O)NCc1ccncc1)N(c1ccc(F)cc1)S(C)(=O)=O (configuration not stated) | -0.482% |
| COc1ccc(Cl)cc1S(=O)(=O)N(C)CC(=O)Nc1ccccc1 | -9.85% |
| COc1cc(N2CCOC(c3ccc(F)cc3)C2)ncn1 (configuration not stated) | -6.22% |

| SMILES | cytotoxicity at 70.5 h |
| --- | --- |
| COCCn1ccnc1C1CCCN(c2ncnc3c2CCC3)C1 (configuration not stated) | -0.0473% |
| CC(C)(NC(=O)C1CCN(C2CCCCC2)CC1)c1nnc(N)s1 | 1.76% |
| CCc1ccc(CN2CCNC(C(=O)N3CCN(C)CC3)C2)o1 (configuration not stated) | -3.44% |
| CCc1ccc(CN2CCC(CNS(=O)(=O)C3CC3)C2)nc1 (configuration not stated) | -2.29% |
| CC(Nc1ncnc2c1CCNC2)c1ccc(C(C)(C)C)cc1 (configuration not stated) | 2.81% |
| Cc1cc(CN(C)c2nc(-c3ccccn3)nc3c2CCNCC3)n[nH]1 | -11.1% |
| CC(C)c1cc(N(C)Cc2cc(C3CC3)on2)n2nccc2n1 | -8.41% |
| CCNc1ccnc(N2Cc3cnn(Cc4ccc(F)cc4)c3C2)n1 | -4% |
| Cc1ccc(-c2cn[nH]c2C2CCCN(c3ccnc(C)n3)C2)cc1 (configuration not stated) | -1.31% |
| CCCOC(=O)N1CCC(c2nnc(Cn3cccn3)n2C2CC2)CC1 | 4.42% |
| CCN1CCN(C(=O)c2cccc(CN3CCOCC3)c2)CC1 | -5.52% |
| CCC[C@@H]1CN(Cc2cc(OC)c3c(c2)OCO3)C[C@H]1C(=O)O | -2.82% |
| CCN(CC1CCCN(CCc2cccc(OC)c2)C1)C(=O)CCSC (configuration not stated) | -6.12% |
| Fc1ccccc1CN1CCCN(c2ccc3cc[nH]c3n2)CC1 | -4.59% |
| CC1CCN(S(=O)(=O)c2ccc(C(=O)N3CCSCC3)cc2)CC1 | -13% |
| CC1CCCN(Cc2ccc(C(N)=O)cc2)C1 (configuration not stated) | 0.459% |
| COCC(=O)N1CCCC(C(=O)N(C)CCCc2cnn(C)c2)C1 (configuration not stated) | 1% |
| Cc1cc(-c2ccncc2)ccc1OCC(N)=O | -5% |
| COC(=O)Cn1c(C)cc(=O)c2cc(F)ccc21 | -4.13% |
| O=C(c1cccnc1N1CCN(Cc2ccoc2)CC1)N1CCCCC1 | -0.284% |
| CCCn1ccnc1CN1C[C@@H](CN2CCCCC2)[C@@H](CO)C1 | -2.74% |
| CCSCC(C)NCc1nc(-c2cccnc2)no1 (configuration not stated) | 19.3% |
| CC(CCn1cccn1)NCc1n[nH]c2c1CCCCC2 (configuration not stated) | 22.7% |

| SMILES | cytotoxicity at 70.5 h |
| --- | --- |
| Cc1ccc(C)c(NC(=O)c2coc(C)n2)c1 | -6.52% |
| Cc1cncc(C(=O)N2CCCC(O)(CN3CCCC3)C2)c1 (configuration not stated) | -19.8% |
| O=C(CCS(=O)(=O)c1ccccc1)NC1CCOC2(CCOCC2)C1 (configuration not stated) | -8.45% |
| CN(C)C(=O)c1ccc(C2CCCN2C(=O)CCC2=NNC(=O)CC2)s1 (configuration not stated) | -14.5% |
| O=c1[nH]c(-c2ccncc2)nc2c1CCN(S(=O)(=O)N1CCCC1)C2 | -13.7% |
| CCCc1cc(NCCC2CCCOC2)n2nccc2n1 (configuration not stated) | 14.3% |
| COCCC1(CO)CCCN(C(=O)c2cccnc2OC)C1 (configuration not stated) | -5.91% |
| Cc1c(C(=O)N(C)c2ccccc2)cccc1N(C)S(C)(=O)=O | -7.07% |
| CC(C)[C@@H]1CN(CCCOc2ccc(F)cc2)C[C@H]1NS(C)(=O)=O | -8.14% |
| O=C(c1cc(-c2cn[nH]c2)nc2cc(F)ccc12)N1CCS(=O)(=O)CC1 | -13.7% |
| Cc1cc(C(F)(F)F)cc(=O)n1Cc1nc(C(C)C)no1 | -14.9% |
| Cc1cccc(C)c1NC(=O)c1cccc(N(C)S(C)(=O)=O)c1C | -14.1% |
| CC(=O)Nn1ccc2c(nnc3c(-c4ccc(F)cc4)cnn32)c1=O | -20.1% |
| CSCCN1CCC(NC(=O)OC(C)(C)C)CC1 | -6.72% |
| CC1CCCN(CCCNC(=O)c2ccc(N(C)S(C)(=O)=O)cc2Cl)C1 (configuration not stated) | -2.33% |
| Cc1ccccc1CCC(=O)N1CCc2ncnc(NCCO)c2CC1 | -0.133% |
| O=C(NCc1nc(-c2ncccn2)no1)c1ccc(C2CCCO2)s1 (configuration not stated) | 11.9% |
| O=C(O)CCn1ccc2c(nnc3c(-c4ccc(F)cc4)cnn32)c1=O | -24.9% |
| O=C(c1cc(Cn2ccc3ccccc32)[nH]n1)N1CCC[C@H]1CO | -0.0597% |
| CCOc1ccc(CNCC(O)c2ccccc2)cc1Cl (configuration not stated) | -4.88% |
